Data on seven molecules can be found in patent US20020119178A1 (priority 2001, published 2002).

Read-outs that look alike come from different tables or passages of the source. Starred links: 1 amine or outer side, 2 acyl side, 3 side chain; linkers in the order of their positions; H or OH if unused. Positions of bridges follow the written chain, without caps; N, C: chain ends. Non-standard residues stand in square brackets, D forms with d. Residues, ends and D or L forms follow the SMILES beside them. Chains are numbered I, II in the order given. Actinocin(9to1) = Cc1c2oc3c(C)ccc(C(=O)[*:1])c3nc-2c(C(=O)[*:2])c(N)c1=O; NMeV = CN[C@H](C(=O)O)C(C)C; Sar = CNCC(=O)O

The subject of data set [1] is human saphenous vein smooth muscle cells (HSV-SMC). As to the kind of experiment: HSV-SMC proliferation assay (MTS), drugs at known concentrations. The data set is classed as cell-based. As to conditions: read-out: IC50 (concentration at which the proliferation is reduced by 50%). On the procedure:
(§1) A proliferation assay was performed using human saphenous vein smooth muscle cells (HSV-SMC) with cells at passage 3-5. HSV-SMC were established in 96-well plates for 24 hours then serum starved for 48 hours. […] A positive control (100%) was set for cells exposed to DMEM supplemented with 20% FBS only while a negative control (0%) was set for cells exposed to only unsupplemented DMEM. Cells were stimulated for 72 hours with the anti-proliferative drug containing culture media. A solution of [3-(4,5-dimethylthiazol-2-yl)-5-(3-carboxymethoxyphenyl)-2-(4-sulfophenyl)-2H-tetrazolium](MTS, a cell proliferation marker) is then added onto the cells for 3 hours. Absorbance at 490 nm is recorded using a 96-well plate reader.

The conditions of data set [2]: for residual tritiated actinomycin D remaining on the discs following 8 days of elution: physiological medium. Here is the method:
In FIG. 1, the electrochemical cell 10 is a standard three-electrode setup. A saturated Calomel electrode (SCE) was used as the reference electrode 12 and the counter electrode 14 was a circular platinum foil (3 cm^2). A 316L stainless steel disk (0.8 cm^2 area) connected to a platinum wire 16 was used as the working electrode 18. The cell was filled with an aqueous electrodeposition solution composed of 5 mM sulfuric acid and 20 mM of an aryldiazonium-containing molecule as described in FIG. 2 for the cyclic voltammetry electrochemical process. The electrodeposition of the aryldiazonium onto the stainless steel device was applied using 2 consecutive cyclic scans ranging from −0.5 V to −1.75 V relatively to the SCE reference electrode. The current-voltage response was followed on a XY recorder. Following electrodeposition, the device was consecutively washed with water and acetonitrile to remove impurities.
FIG. 5 illustrates the necessity of the presence of a molecule containing a diazonium moiety to retain tritiated actinomycin D deposited on the surface of stainless steel 316L discs. In this experiment, stainless steel 316L discs, which are made out of the same material as the stainless steel stents and other endovascular devices, are either functionalized with 4-bromobenzenediazonium or left bare. The discs are then exposed to a solution containing 30 μg of tritiated actinomycin D whereas the solvent is acetonitrile or ethanol. Following dipping, the discs are left to dry at room temperature until the solvent evaporates. The discs are first washed in deionized water for 5 minutes followed by a 5-minute wash in a physiologic solution. The discs are then counted in a scintillation counter.
FIG. 6 illustrates the loading and retention capacity of tritiated actinomycin D immobilized as described previously onto stainless steel 316L discs, with the exception however that water was also used as solvent for immobilizing tritiated actinomycin D. Following immobilization, the discs were first washed for 5 minutes in deionized water followed by a 5-minute wash in a physiologic solution. The loading of tritiated actinomycin D onto the stainless steel discs varied according of the type of solvent used: acetonitrile>ethanol>water.
FIG. 7 illustrates the effect of varying concentrations of the 4-bromobenzenediazonium solution on the loading and retention of 30 μg of tritiated actinomycin D following 8 days of elution in a physiological medium. Stainless steel 316L discs were exposed to varying concentrations of 4-bromobenzenediazonium solution before electrodeposition with the set-up as described in FIG. 1. Actinomycin D loading in the ethanol solution increased 1.6 fold, from 4324±329 for […] to 7146±80 for 20 mM. […]

For data set [3], the system named is human saphenous vein smooth muscle cells (HSV-SMC). The data set is classed as cell-based. As to conditions: bromobenzenediazonium coated discs only, no drug. Here is the method:
as §1

Setting [4] is: Homo sapiens, HSV-SMC passage 3-5, 20% FBS, 72 hours, MTS absorbance 490 nm.

For the molecule `Cc1c2oc3c(C)ccc(C(=O)N[C@@H]4C(=O)N[C@H](C(C)C)C(=O)N5CCC[C@H]5C(=O)N(C)CC(=O)N(C)[C@@H](C(C)C)C(=O)O[C@@H]4C)c3nc-2c(C(=O)N[C@@H]2C(=O)N[C@H](C(C)C)C(=O)N3CCC[C@H]3C(=O)N(C)CC(=O)N(C)[C@@H](C(C)C)C(=O)O[C@@H]2C)c(N)c1=O` [actinomycin D] (I: T[dV]P[Sar][NMeV] / II: T[dV]P[Sar][NMeV]; ester I:1-I:C, II:1-II:C; linker I:N-II:N via Actinocin(9to1)), the IC50 in data set [1] (HSV-SMC passage 3-5, 20% FBS, 72 hours, MTS absorbance 490 nm) turned out to be 0.081 nM. For the same molecule, the “residual tritiated actinomycin D remaining on the discs following 8 days of elution” value is 348±52 in data set [2] (0.02 mM 4-bromobenzenediazonium) and 2539±43 in data set [2] (20 mM 4-bromobenzenediazonium). Further, the “drug remaining on the discs after 10 days of elution” value in data set [2] (4-bromobenzenediazonium functionalized discs loaded with acetonitrile, physiological solution) is roughly 20%. In data set [2] (functionalized discs loaded with acetonitrile or ethanol), the “drug remaining on discs following 10 days of elution” value is “substantial amounts”. For the molecule `COc1cccc2c1C(=O)c1c(O)c3c(c(O)c1C2=O)C[C@@](O)(C(=O)CO)C[C@@H]3O[C@H]1C[C@H](N)[C@H](O)[C@H](C)O1` [doxorubicin], the IC50 in data set [1] (setting [4]) is 8 nM. In the case of `F[B-](F)(F)F.N#[N+]c1ccc(Br)cc1` [molecule 5, 4-bromobenzenediazonium tetrafluoroborate], the “effect of elution on cell proliferation” value in data set [3] is on record as “does not inhibit cell proliferation”. Turning to `CC(=O)O[C@H]1C(=O)[C@@]2(C)[C@H]([C@H](OC(=O)c3ccccc3)[C@]3(O)C[C@H](OC(=O)[C@H](O)[C@@H](NC(=O)c4ccccc4)c4ccccc4)C(C)=C1C3(C)C)[C@]1(OC(C)=O)CO[C@@H]1C[C@@H]2O` [paclitaxel], the IC50 in data set [1] (setting [4]) was 48 nM.

For the molecule `CO[C@H]1C[C@@H]2CC[C@@H](C)[C@@](O)(O2)C(=O)C(=O)N2CCCC[C@H]2C(=O)O[C@H]([C@H](C)C[C@@H]2CC[C@@H](O)[C@H](OC)C2)CC(=O)[C@H](C)/C=C(\C)[C@@H](O)[C@@H](OC)C(=O)[C@H](C)C[C@H](C)/C=C/C=C/C=C/1C` [rapamycin], the IC50 in data set [1] (Homo sapiens, 72 h) is 0.12 nM. As to `CC[C@]1(O)C[C@@H]2CN(CCc3c([nH]c4ccccc34)[C@@](C(=O)OC)(c3cc4c(cc3OC)N(C)[C@H]3[C@@](O)(C(=O)OC)[C@H](OC(C)=O)[C@]5(CC)C=CCN6CC[C@]43[C@@H]65)C2)C1` [vinblastine], the IC50 in data set [1] (setting [4]) came out at 0.74 nM. On to `CC[C@]1(O)C[C@H]2CN(CCc3c([nH]c4ccccc34)[C@@](C(=O)OC)(c3cc4c(cc3OC)N(C=O)[C@H]3[C@@](O)(C(=O)OC)[C@H](OC(C)=O)[C@]5(CC)C=CCN6CC[C@]43[C@@H]65)C2)C1` [vincristine], for which, in data set [1] (Homo sapiens, 72 h), the IC50 is 0.82 nM.
